Common to all, as to type: cell-based, human
Assay [1] has as its system K562 S34F-U2AF1 cells. Nature of the assay: Clonogenic progenitor assay in methylcellulose. Conditions: 10 uM inhibitor, colonies counted after 7 days, S34F-U2AF1 compared to WT-U2AF1 cells (FIG. 13C). The text has this: (§1) Doxycycline-inducible FLAG-tagged WT U2AF1 or FLAG-tagged mutant U2AF1(S34F) lentiviral expression plasmids have been previously described, and lentivirus was generated in 293T cells with the packaging plasmids pMD-G, pMD-Lg and REV. Concentrated virus (multiplicity of infection (MOI) of 3 for K562, MOI of 5 for OCI-AML3) was used to transduce K562 cells (ATCC, CCL243) or OCI-AML3 (DSMZ, ACC 582). Transduced cells (marked by green fluorescent protein) were isolated by flow cytometry cell sorting. Expression of mutant or WT U2AF1 was induced using the indicated concentrations of doxycycline hyclate (Sigma) in water. (Shirai C, et al., 2017)
Clonogenic progenitor frequencies were determined by plating 1×10^3 K562 cells/ml in methylcellulose (Methocult H4236; Stem Cell Technologies). Colonies were scored after 7 days.
(§2) It was then investigated in whether or not there was a therapeutic opportunity in a subset of patients with increased IRAK4-Long expression, since expression of IRAK4-Long is associated with poor AML patient outcome (as described in Example 4, above). […] K562 WT- and S34F-U2AF1 were treated with DMSO or 10 uM IRAK1/4 inhibitor for 7 days, and cell viability was monitored by trypan blue exclusion. […]
(§3) Viability was measured by Trypan Blue staining. […] Colonies were counted after 7 days.

The next assay relates to K562 WT-U2AF1 cells. Nature of the assay: Growth curve, cell viability by trypan blue exclusion. Conditions: 10 uM inhibitor vs DMSO, 7 days, WT-U2AF1 cells (FIG. 13B).
Text: as §1
(§4) Trypan blue exclusion was measured using an automated cell counter (BioRad, Hercules, Calif., TC10). Cells were replenished with fresh media, doxycycline and drug every fifth day.
as §2, §3

Assay [2] deals with K562 S34F-U2AF1 cells. Described as above. To be noted: 10 uM inhibitor vs DMSO, S34F-U2AF1 cells (FIG. 13B).
Text: as §1, §4, §2, §3

The test system of assay [3] is phospho-IRAK1, phospho-pIKK, and phospho-p65. The assay is described as follows: Immunoblotting of innate immune signaling after IRAK1/4 inhibitor treatment. To be noted: S34F-U2AF1 K562 cells; IRAK1/4 inhibitor for 1 hour and 2 hours; immunoblot (FIG. 13A). The protocol:
Total protein lysates were obtained from cells by lysing the samples in cold RIPA buffer (50 mM Tris-HCl, 150 mM NaCl, 1 mM EDTA, 1% Triton X-100 and 0.1% SDS), in the presence of PMSF, sodium orthovanadate, protease and phosphatase inhibitors. Protein concentration was evaluated by a BCA assay (32106, Pierce, Rockford, Ill.). The bound proteins were separated by SDS-polyacrylamide gel electrophoresis, transferred to nitrocellulose membranes, and analyzed by immunoblotting. Western blot analysis was performed with the following antibodies: IRAK4 C-term (ab5985; Abcam, Cambridge, UK), IRAK N-term (4363; Cell Signaling Technology), GAPDH (5174; Cell Signaling Technology), Flag (F3165; Sigma, St. Louis, Mo.), IRAK1 (sc-7883; Santa Cruz, Dallas, Tex.), phospho-IRAK1 (T209) (A1074; AssaybioTech, Sunnyvale, Calif.), U2AF1 (ab86305; Abeam), IKKβ (2370; Cell Signaling Technology), phospho-IKKα/β (2697; Cell Signaling Technology), p38 MAPK (9212; Cell Signaling Technology), phopho-p38 MAPK (4631; Cell Signaling Technology), ERK (4695; Cell Signaling Technology), phospho-ERK (4377; Cell Signaling Technology), p65 (8242; Cell Signaling Technology) and phospho-p65 (3033; Cell Signaling Technology).
Doxycycline-inducible FLAG-tagged WT U2AF1 or FLAG-tagged mutant U2AF1(S34F) lentiviral expression plasmids have been previously described, and lentivirus was generated in 293T cells with the packaging plasmids pMD-G, pMD-Lg and REV. Concentrated virus (multiplicity of infection (MOI) of 3 for K562, MOI of 5 for OCI-AML3) was used to transduce K562 cells (ATCC, CCL243) or OCI-AML3 (DSMZ, ACC 582). […]
as §2, §3

This is an account of results in patent publication US20210292843A1, “TREATMENT OF DISEASES ASSOCIATED WITH ACTIVATED IRAK” (CHILDREN'S HOSPITAL MEDICAL CENTER, priority 2016, published 2021).

Regarding `O=C(Nc1nc2ccccc2n1CCN1CCOCC1)c1cccc([N+](=O)[O-])c1` [IRAK1/4 inhibitor], in the assay on K562 S34F-U2AF1 cells [1], the “colonies in methylcellulose (leukemic progenitor function)” value is recorded as “significantly fewer colonies”. Further, in the assay on K562 WT-U2AF1 cells, the “decrease in proliferation and viability” value was “not seen”. Also, the “cell viability / survival over 7 days” value with K562 S34F-U2AF1 cells [2] is “significantly reduced survival”. In addition, in assay [3], the phospho-IRAK1 level result was “returned to normal”, the phospho-p65 level entry is given as “returned to normal” and the phospho-pIKK level result is given as “returned to normal”.
